According to US8178535B2, “Substituted sulfonamide compounds having bradykinin 1 receptor activity and use thereof as medicaments” (Gruenenthal GmbH, priority 2008, dated 2012):

Key:
[1] = biological target: T1, human B1R receptor (hB1R) (Homo sapiens, UniProt P46663); assay: FLIPR Ca2+ assay (Fluo-4) on CHO K1 cells stably transfected with the human B1R gene; format: cell-based; conditions: CHO-K1; test substance 10 μM; agonist Lys-Des-Arg9-bradykinin 0.5 nM; % inhibition compared to the maximum achievable inhibition
T1 construct: host or cells: CHO K1 cells
T1 sequence (P46663 1-353): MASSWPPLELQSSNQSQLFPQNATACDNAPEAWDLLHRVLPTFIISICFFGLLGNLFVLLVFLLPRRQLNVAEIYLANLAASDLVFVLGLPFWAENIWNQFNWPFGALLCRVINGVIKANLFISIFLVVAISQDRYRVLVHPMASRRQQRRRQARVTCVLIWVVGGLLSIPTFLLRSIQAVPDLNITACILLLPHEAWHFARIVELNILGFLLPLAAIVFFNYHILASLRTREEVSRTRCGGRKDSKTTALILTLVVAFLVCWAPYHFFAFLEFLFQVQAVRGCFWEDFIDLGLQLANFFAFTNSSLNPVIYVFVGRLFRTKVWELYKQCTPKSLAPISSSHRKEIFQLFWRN
Description: (§1) The agonistic or antagonistic action of compounds can be quantified on the bradykinin 1 receptor (B1R) of humans and rats with ectopically expressing cell lines (CHO K1 cells) and with the aid of a Ca^2+-sensitive dye (Fluo-4) in the fluorescent imaging plate reader (FLIPR). The figure in percent activation refers to the Ca^2+ signal after addition of Lys-Des-Arg^9-bradykinin (0.5 nM) and Des-Arg^9-bradykinin (100 nM). Antagonists result in a suppression of the Ca^2+ inflow after the addition of the agonist. Percent inhibition values are given in comparison to the maximum achievable inhibition. The compounds according to the invention act, for example, on the B1R which is implicated in various disease states. This means that the compounds of the invention are useful as pharmaceutically active substances in medicaments for the treatment and/or inhibition of such disease states.
(§2) The agonistic or antagonistic action of substances can be determined on the bradykinin 1 receptor (B1R) of humans and rats by means of the following assay. According to this assay the Ca^2+ inflow through the channel is quantified by means of a Ca^2+-sensitive dye (Fluo-4 type, Molecular Probes Europe BV, Leiden, Netherlands), in a Fluorescent Imaging Plate Reader (FLIPR, Molecular Devices, Sunnyvale, USA).
(§3) Chinese hamster ovary cells (CHO K1 cells) are used, which are stably transfected with the human B1R gene (hB1R cells, Euroscreen s.a., Gosselies, Belgium), or with the B1R gene of rats (rB1R cells, Axxam, Milan, Italy). For functional investigations these cells are plated out on black 96-well plates with a clear floor (BD Biosciences, Heidelberg, Germany) in a density of 20,000/25,000 cells/well. The cells are incubated overnight with 10 vol. % FBS (foetal bovine serum, Gibco Invitrogen GmbH, Karlsruhe, Germany) at 37° C. and 5% CO2 in a culture medium (hB1R cells: Nutrient Mixture Ham's F12, Gibco Invitrogen GmbH, Karlsruhe, Germany; rB1R cells: D-MEM/F12, Gibco Invitrogen GmbH, Karlsruhe, Germany). The following day the cells are charged for 60 minutes at 37° C. with 2.13 μM Fluo-4 (Molecular Probes Europe BV, Leiden, Netherlands) in HBSS buffer (Hank's buffered saline solution, Gibco Invitrogen GmbH, Karlsruhe, Germany) together with […] (Sigma-Aldrich, Taufkirchen, Germany) and 10 mM HEPES (Sigma-Aldrich, Taufkirchen, Germany).
(§4) The plates are then washed twice with HBSS buffer and HBSS buffer is added which additionally contains 0.1% BSA (bovine serum albumin; Sigma-Aldrich, Taufkirchen, Germany), 5.6 mM glucose and 0.05% gelatin (Merck KGaA, Darmstadt, Germany). After further incubation for 20 minutes at room temperature the plates are used for the Ca^2+ measurement in the FLIPR. The Ca^2+-dependent fluorescence is measured both before and after the addition of substances (λex=488 nm, λem=540 nm). The quantification is carried out by measuring the highest fluorescence intensity (FC, fluorescence counts) over time.
(§5) The FLIPR protocol consists of two substance additions. First, test substances (10 μM) are pipetted onto the cells and the Ca^2+ inflow is compared with the control (hB1R: Lys-Des-Arg9-bradykinin 0.5 nM; rB1R: Des-Arg9-bradykinin 100 nM). This gives the result in percent activation referred to the Ca^2+ signal after addition of Lys-Des-Arg9-bradykinin (0.5 nM), bzw. Des-Arg9-bradykinin (100 nM). After 10 minutes' incubation 0.5 nM Lys-Des-Arg9-bradykinin (hB1R) and 100 nM Des-Arg^9-bradykinin (rB1R) are applied and the inflow of Ca^2+ is likewise determined. Antagonists lead to a suppression of the Ca^2+ inflow. The percent inhibition compared to the maximum achievable inhibition is calculated. The compounds show a good activity on both human and rat receptors.
(§6) The agonistic and antagonistic action of the compounds according to the invention on the bradykinin 1 receptor (B1R) of humans and rats were determined as described above. Antagonists lead to a suppression of the Ca^2+ inflow. […]

[2] = biological target: T2, B1R receptor of rats (rB1R) (Rattus norvegicus, UniProt P97583); assay: FLIPR Ca2+ assay (Fluo-4) on CHO K1 cells stably transfected with the B1R gene of rats; format: cell-based; conditions: CHO-K1; test substance 10 μM; agonist Des-Arg9-bradykinin 100 nM; % inhibition compared to the maximum achievable inhibition
T2 construct: host or cells: CHO K1 cells
T2 sequence (P97583 1-337): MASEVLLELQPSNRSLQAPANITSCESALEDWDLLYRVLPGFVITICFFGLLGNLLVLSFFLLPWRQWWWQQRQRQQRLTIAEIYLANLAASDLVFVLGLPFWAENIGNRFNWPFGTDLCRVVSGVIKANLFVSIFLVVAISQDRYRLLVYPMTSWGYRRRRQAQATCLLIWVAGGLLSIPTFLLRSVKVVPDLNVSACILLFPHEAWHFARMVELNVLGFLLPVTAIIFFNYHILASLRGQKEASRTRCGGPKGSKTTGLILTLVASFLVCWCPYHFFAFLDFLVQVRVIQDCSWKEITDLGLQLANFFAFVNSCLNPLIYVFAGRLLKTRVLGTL
Description: as §1, §2, §3, §4, §5, §6

Row | SMILES | inhibition at 10 µM [1] | inhibition at 10 µM [2]
1 | COc1ccc(C2c3cccn3CCN2C(=O)COCC2CCCCN2S(=O)(=O)c2c(C)cc(OC)cc2C)cc1 (stereo not shown) [(24), 2-((1-(4-methoxy-2,6-dimethylphenylsulfonyl)piperidin-2-yl)methoxy)-1-(1-(4-methoxyphenyl)-3,4-dihydropyrrolo[1,2-a]pyrazin-2(1H)-yl)ethanone] | 101% | 98%
2 | COc1cc(C)c(S(=O)(=O)N2CCCCC2COCC(=O)N2CCn3cc(CN4CCCCC4)nc3C2)c(C)c1 (stereo not shown) [(2), 2-((1-(4-methoxy-2,6-dimethylphenylsulfonyl)piperidin-2-yl)methoxy)-1-(2-(piperidin-1-ylmethyl)-5,6-dihydroimidazo[1,2-a]pyrazin-7(8H)-yl)ethanone] | 105% | 106%
3 | COc1cc(C)c(S(=O)(=O)N2CCCCC2COCC(=O)N2CCn3c(ccc3-c3ccncc3)C2)c(C)c1 (stereo not shown) [(95), 2-((1-(4-Methoxy-2,6-dimethylphenylsulfonyl)piperidin-2-yl)methoxy)-1-(6-(pyridin-4-yl)-3,4-dihydropyrrolo[1,2-a]pyrazin-2(1H)-yl)ethanone] | 99% | 97%
4 | COc1cc(C)c(S(=O)(=O)N2CCCCC2COCC(=O)N2CCn3cccc3C2c2ccccc2)c(C)c1 (stereo not shown) [(25), 2-((1-(4-methoxy-2,6-dimethylphenylsulfonyl)piperidin-2-yl)methoxy)-1-(1-phenyl-3,4-dihydropyrrolo[1,2-a]pyrazin-2(1H)-yl)ethanone] | 99% | 97%
5 | Cc1cc(S(=O)(=O)N2CCCCC2CCC(=O)N2CCn3c(CN4CCOCC4)ccc3C2)c(C)cc1Cl (stereo not shown) [(12), 3-(1-(4-chloro-2,5-dimethylphenylsulfonyl)piperidin-2-yl)-1-(6-(morpholino-methyl)-3,4-dihydropyrrolo[1,2-a]pyrazin-2(1H)-yl)propan-1-one] | 103% | 57%
6 | COc1cc(C)c(S(=O)(=O)N2CCCCC2COCC(=O)N2CCn3c(CN4CCCC4)ccc3C2)c(C)c1 (stereo not shown) [(13), 2-((1-(4-methoxy-2,6-dimethylphenylsulfonyl)piperidin-2-yl)methoxy)-1-(6-(pyrrolidin-1-ylmethyl)-3,4-dihydropyrrolo[1,2-a]pyrazin-2(1H)-yl)ethanone] | 102% | 102%
7 | COc1cc(C)c(S(=O)(=O)N2CCCCC2COCC(=O)N2CCn3c(CCCN4CCN(C)CC4)ccc3C2)c(C)c1 (stereo not shown) [(14), 2-((1-(4-methoxy-2,6-dimethylphenylsulfonyl)piperidin-2-yl)methoxy)-1-(6-(3-(4-methylpiperazin-1-yl)propyl)-3,4-dihydropyrrolo[1,2-a]pyrazin-2(1H)-yl)ethanone] | 97% | 99%
8 | COc1cc(C)c(S(=O)(=O)N2CCCCC2COCC(=O)N2CCn3cccc3C2c2ccc(C(F)(F)F)cc2F)c(C)c1 (stereo not shown) [(32), 1-(1-(2-fluoro-4-(trifluoromethyl)phenyl)-3,4-dihydropyrrolo[1,2-a]pyrazin-2(1H)-yl)-2-((1-(4-methoxy-2,6-dimethylphenylsulfonyl)piperidin-2-yl)methoxy)ethanone] | 61% | 99%
9 | COc1cc(C)c(S(=O)(=O)N2CCCCC2COCC(=O)N2CCn3c(Cc4ccncc4)ccc3C2)c(C)c1 (stereo not shown) [(88), 2-((1-(4-Methoxy-2,6-dimethylphenylsulfonyl)piperidin-2-yl)methoxy)-1-(6-(pyridin-4-ylmethyl)-3,4-dihydropyrrolo[1,2-a]pyrazin-2(1H)-yl)ethanone] | 99% | 100%
10 | COc1cc(C)c(S(=O)(=O)N2CCCCC2COCC(=O)N2CCn3c(CN(C)C)ccc3C2c2cccs2)c(C)c1 (stereo not shown) [(68), 1-(6-((dimethylamino)methyl)-1-(thiophen-2-yl)-3,4-dihydropyrrolo[1,2-a]pyrazin-2(1H)-yl)-2-((1-(4-methoxy-2,6-dimethylphenylsulfonyl)piperidin-2-yl)methoxy)ethanone] | 102% | 103%
11 | COc1cc(C)c(S(=O)(=O)N2CCCCC2CCC(=O)N2CCn3c(ccc3-c3cccnc3)C2)c(C)c1 (stereo not shown) [(94), 3-(1-(4-Methoxy-2,6-dimethylphenylsulfonyl)piperidin-2-yl)-1-(6-(pyridin-3-yl)-3,4-dihydropyrrolo[1,2-a]pyrazin-2(1H)-yl)propan-1-one] | 45% | 99%
12 | CCC1c2ccc(CN(C)C)n2CCN1C(=O)COCC1CCCCN1S(=O)(=O)c1c(C)cc(OC)cc1C (stereo not shown) [(69), 1-(6-((dimethylamino)methyl)-1-ethyl-3,4-dihydropyrrolo[1,2-a]pyrazin-2(1H)-yl)-2-((1-(4-methoxy-2,6-dimethylphenylsulfonyl)piperidin-2-yl)methoxy)ethanone] | 104% | 102%
13 | COc1cc(C)c(S(=O)(=O)N2CCCCC2CCCC(=O)N2CCn3c(Cc4ccncc4)ccc3C2)c(C)c1 (stereo not shown) [(91), 4-(1-(4-Methoxy-2,6-dimethylphenylsulfonyl)piperidin-2-yl)-1-(6-(pyridin-4-ylmethyl)-3,4-dihydropyrrolo[1,2-a]pyrazin-2(1H)-yl)butan-1-one] | 95% | 100%
14 | CCCCC1c2ccc(CN(C)C)n2CCN1C(=O)COCC1CCCCN1S(=O)(=O)c1c(C)cc(C)cc1C (stereo not shown) [(52), 1-(1-butyl-6-((dimethylamino)methyl)-3,4-dihydropyrrolo[1,2-a]pyrazin-2(1H)-yl)-2-((1-(mesitylsulfonyl)piperidin-2-yl)methoxy)ethanone] | 103% | 100%
15 | Cc1cc(C)c(S(=O)(=O)N2CCCCC2COCC(=O)N2CCn3cccc3C2c2ccc(C)c(C)c2)c(C)c1 (stereo not shown) [(41), 1-(1-(3,4-dimethylphenyl)-3,4-dihydropyrrolo[1,2-a]pyrazin-2(1H)-yl)-2-((1-(mesitylsulfonyl)piperidin-2-yl)methoxy)ethanone] | 35% | 98%
16 | COc1cc(C)c(S(=O)(=O)N2CCCCC2COCC(=O)N2CCn3c(CN4CCCCC4)nnc3C2)c(C)c1 (stereo not shown) [(87), 2-((1-(4-Methoxy-2,6-dimethylphenylsulfonyl)piperidin-2-yl)methoxy)-1-(3-(piperidin-1-ylmethyl)-5,6-dihydro-[1,2,4]triazolo[4,3-a]pyrazin-7(8H)-yl)ethanone] | – | 103%
